Measurements reported in patent publication US8921122B2, “System and method for quantitative assessment of biological migration behavior” (The General Hospital Corporation, priority 2008, dated 2014).

B1: P-selectin: Human recombinant P-selectin, cell adhesion molecule used to coat capture surface (R&D Systems ADP3-050) (protein, UniProt P16109 42-830, looked up)
P-selectin: WTYHYSTKAYSWNISRKYCQNRYTDLVAIQNKNEIDYLNKVLPYYSSYYWIGIRKNNKTWTWVGTKKALTNEAENWADNEPNNKRNNEDCVEIYIKSPSAPGKWNDEHCLKKKHALCYTASCQDMSCSKQGECLETIGNYTCSCYPGFYGPECEYVRECGELELPQHVLMNCSHPLGNFSFNSQCSFHCTDGYQVNGPSKLECLASGIWTNKPPQCLAAQCPPLKIPERGNMTCLHSAKAFQHQSSCSFSCEEGFALVGPEVVQCTASGVWTAPAPVCKAVQCQHLEAPSEGTMDCVHPLTAFAYGSSCKFECQPGYRVRGLDMLRCIDSGHWSAPLPTCEAISCEPLESPVHGSMDCSPSLRAFQYDTNCSFRCAEGFMLRGADIVRCDNLGQWTAPAPVCQALQCQDLPVPNEARVNCSHPFGAFRYQSVCSFTCNEGLLLVGASVLQCLATGNWNSVPPECQAIPCTPLLSPQNGTMTCVQPLGSSSYKSTCQFICDEGYSLSGPERLDCTRSGRWTDSPPMCEAIKCPELFAPEQGSLDCSDTRGEFNVGSTCHFSCDNGFKLEGPNNVECTTSGRWSATPPTCKGIASLPTPGVQCPALTTPGQGTMYCRHHPGTFGFNTTCYFGCNAGFTLIGDSTLSCRPSGQWTAVTPACRAVKCSELHVNKPIAMNCSNLWGNFSYGSICSFHCLEGQLLNGSAQTACQENGHWSTTVPTCQAGPLTIQEALTYFGGAVASTIGLIMGGTLLALLRKRFRQKDDGKCPLNPHSHLGTYGVFTNAAFDPSP
B2: E-selectin: Human recombinant E-selectin, cell adhesion molecule used to coat capture surface (R&D Systems ADP1-050) (protein, UniProt P16581 22-610, looked up)
E-selectin: WSYNTSTEAMTYDEASAYCQQRYTHLVAIQNKEEIEYLNSILSYSPSYYWIGIRKVNNVWVWVGTQKPLTEEAKNWAPGEPNNRQKDEDCVEIYIKREKDVGMWNDERCSKKKLALCYTAACTNTSCSGHGECVETINNYTCKCDPGFSGLKCEQIVNCTALESPEHGSLVCSHPLGNFSYNSSCSISCDRGYLPSSMETMQCMSSGEWSAPIPACNVVECDAVTNPANGFVECFQNPGSFPWNTTCTFDCEEGFELMGAQSLQCTSSGNWDNEKPTCKAVTCRAVRQPQNGSVRCSHSPAGEFTFKSSCNFTCEEGFMLQGPAQVECTTQGQWTQQIPVCEAFQCTALSNPERGYMNCLPSASGSFRYGSSCEFSCEQGFVLKGSKRLQCGPTGEWDNEKPTCEAVRCDAVHQPPKGLVRCAHSPIGEFTYKSSCAFSCEEGFELHGSTQLECTSQGQWTEEVPSCQVVKCSSLAVPGKINMSCSGEPVFGTVCKFACPEGWTLNGSAARTCGATGHWSGLLPTCEAPTESNIPLVAGLSAAGLSLLTLAPFLLWLRKCLRKAKKFVPASSCQSLESDGSYQKPSYIL

What was measured:
Type in all cases: cell-based, human
[1] = test system: neutrophils; assay: Neutrophil migration assay in chemoattractant gradients (switching gradient device); conditions: for average displacement in the direction of the gradient: 20 nM/450 μm fMLP or 10 nM/450 μm IL-8 gradient; for directional bias of migration profile (comparison): comparison between substrates / between chemoattractants; for Random motility coefficient (μ): initial 10 minutes of migration
Procedure: The gradient generating device used to study cell migration consists of two inlets, one outlet, and a cell loading port. In a similar manner as explained above, the device was primed after functionalizing the channel surface with adhesion molecules. Two syringes were prepared, one with only buffer containing 0.2% HSA while the other also containing the appropriate concentration of chemokine. Two chemoattractants, either recombinant human interleukin-8 (IL8, Catalog #208-IL, R&D Systems inc.) or N-formyl-methionyl-leucyl-phenylalanine (fMLP, Part # F3506, Sigma-Aldrich) were employed at 10 nM and 20 nM concentrations. For consistency, the two syringes were connected to the device such that chemokine gradient in the cell capture and migration chambers was always in the same orientation, from top (100%) to bottom (0%). After the device was primed, inlet ports were clamped, and the blood sample was loaded through the cell loading port as described in the following section.
A 1.25 mm lancet (Part #366579, Becton Dickinson) was used to prick a finger of a subject, and 10 μL whole blood was drawn with a pipette. Before withdrawing the blood, 70 μL of HBSS mixed with sodium heparin (Part #367871, Becton Dickinson) was injected into the open end of a loading needle using a pipette. The blood in the pipette was then directly mixed with the heparin solution inside the needle. A slight pressure was gradually applied to the open end of the needle using an index finger to push the blood sample through the tubing until a small drop of fluid appeared on the other end of the tubing. To avoid entrapment of air bubbles while connecting the tubing to the PDMS device, a drop of HBSS was always present in excess at the connecting ports of the device. The loose end of the sample tubing was held with forceps and carefully inserted in the PDMS port. Once a sealed connection was established, pressure was again applied to the loading needle to push samples through the cell capture and migration chamber. The inlet and outlet tubings were then clamped using binder clips for 5-10 minutes allowing cells to interact and bind with the glycoprotein molecules.
For the neutrophil capture characterization experiments, images for 7-10 sections (each 750 μm long, FIG. 2B) were acquired at 2 s interval using time lapse microscopy and at least 10 frames were captured. This was done to make sure that only adherent neutrophils were counted. An inverted Olympus microscope (Model # CKX41) and a CMOS color camera (Pixelink PLA742) were used to capture time lapse images in phase contrast mode. A 10× ocular and 10× objective magnification were used. The neutrophils captured in the chambers were counted manually in 7-10 distinct areas for each concentration. The average number of captured cells was calculated from three repeated experiments for each concentration and CAM. Captured time lapse images were converted to 8 bit and individual cells were tracked using Metamorph imaging software (Ver 4.1, Universal Imaging Corporation). Elapsed time and migration distance from the origin in the Y direction were derived for each cell and average displacements were calculated for the entire cell population in consideration. Migration curves representing the average distance traveled in the direction of increasing chemokine concentration against time were plotted and compared. It is notable that the slope of gradient along the flow path in the cell chamber gradually changes depending on the flow rates and the diffusivities of chemoattractants. Therefore, to maintain consistency, only the first upstream quarter of the cell chamber was considered for microscopic observation where the variations in gradient profile are minimal. […]

[2] = test system: neutrophils; assay: Further migration analysis on P-selectin functionalized migration chamber with IL-8 gradient
Procedure: The surface of the migration chamber of a device as described herein was functionalized with P-selectin by exposure to a 10 nM solution of P-selectin for 10 minutes, followed by Hanks buffer wash for 5 minutes. Capillary blood was collected from the tip of a finger using a lancet. A volume of 10 μL (equivalent of a small droplet) was collected in 10 μL heparin 2×, mixed well by repeated pipetting, and introduced into the device. After filling the main channel, a slow flow rate of the blood was established by raising the inlet tube at 4-5 cm above the level of the device.
After 5 minutes, the blood inlet was clamped, and buffer was introduced from one of the gradient generators that had Hanks buffer solution at both inlets. After 1 minute of washing all the red blood cells through the device, only leukocytes were left on the P selectin coated surface of the migration chamber. Based on observed morphological characteristics, most of the remaining captured cells appeared to be neutrophils. After 5-10 minutes of washing using a buffer, a gradient of IL-8 (from 0 to 12 nM over 400 μm distance) was rapidly established using the second gradient chamber. […]
The displacement of neutrophils in the direction of the gradient was also measured as a function of time.

[3] = test system: neutrophils; assay: Neutrophil capture from whole blood on CAM-coated microfluidic channels
Source text: Three different adhesion molecules (P-selectin, E-selectin and fibronectin) were used to capture primary neutrophils from whole blood in the microfluidic channels. These substrates were chosen because of their significant role in neutrophil trafficking in vivo. To characterize the neutrophil capture efficiency, the cell capture chambers were coated with the adhesion molecules by flowing through solutions of six different concentrations of each adhesion molecule (concentrations shown in Table 1). Solutions were prepared by diluting the stock solution in sterile water or phosphate buffered saline (PBS) as advised by the vendors. These dilutions were loaded in the six cell capture chambers of the device and incubated for 1 h at room temperature. After one hour, P-selectin was aspirated and the flow chambers perfused with 2% HSA (Human Serum Albumin, Sigma-Aldrich Catalog # A5843) in Hank's buffer saline solution (HBSS, Sigma-Aldrich Catalog # H9269) to block non-specific binding sites and incubated for at least 15 minutes.
The PDMS device used to characterize cell capture consists of six distinct parallel channels each having an inlet and an outlet port (FIG. 2A). The channel dimensions of each segment of the capture device are 750×450×80 μm (L×W×H). The length of each segment was chosen such that it will conveniently fit in the field of view at 10× ocular and 10× objective magnification. 10 μL whole blood was mixed with 70 μL it heparinized HBSS solution and loaded in the cell chamber. Six 1 mL syringes (Part #309602, Becton, Dickinson and Company, Franklin Lakes, N.J.) were filled with HBSS containing 0.2% HSA. Most of the air trapped in the dead volume of the syringe was eliminated by tapping the inverted syringes. Syringes were then connected to tygon tubing approximately 10 to 12 inches long (Part # TGY-010-C, Small parts Inc.) through the needles (Part # NE-301PLC, Small parts Inc.). The syringes were placed on the syringe pump rack (PHD 2000, Harvard Apparatus, Holliston, Mass.), and the loose ends of the tubing were connected to the inlets of the device properly secured on the microscope stage. Smaller fragments of tubing were connected to the outlet ports. The pump was turned on at the rate of 4-5 μL/min, and the outlet tubings were clamped once the channels were filled with fluid, while leaving the pump running. This priming step was necessary to eliminate any trapped air pockets by continuing the inflow that pressurizes the air bubbles to diffuse through the porous PDMS matrix. Blood sample could be loaded as soon as all the air pockets were eliminated.
A 1.25 mm lancet (Part #366579, Becton Dickinson) was used to prick a finger of a subject, and 10 μL whole blood was drawn with a pipette. […]

[4] = test system: neutrophils; assay: Neutrophil capture on CAM-coated channels primed with 20 nM fMLP; conditions: CAM coated channel primed with 20 nM fMLP
Procedure: To identify whether the chemoattractant exposure has any significant effect on neutrophil capture from whole blood, the CAM coated channel was primed with 20 nM fMLP, and the cells were captured in a similar manner as described above. The effects of chemotactic priming of channels appeared significant from the statistical analysis (P<<0.05).

[5] = 50 μg/mL E-selectin surface, first 30 minutes
[6] = 200 μg/mL fibronectin surface, 30 minutes
[7] = substrate E-selectin, mean of about 15 cells
[8] = substrate Fibronectin, less than 10 cells
[9] = substrate P-selectin, mean of about 15 cells

Molecule | average displacement in the direction of the gradient [1, 5] [μm] | average displacement in the direction of the gradient [1, 6] | directional bias of migration profile (comparison) [1] | Random motility coefficient (μ) [1, 7] [μm^2/minute] | Random motility coefficient (μ) [1, 8] [μm^2/minute] | Random motility coefficient (μ) [1, 9] [μm^2/minute] | cells captured on primed vs. unprimed surface [4] | also measured
CSCC[C@H](NC=O)C(=O)N[C@@H](CC(C)C)C(=O)N[C@@H](Cc1ccccc1)C(=O)O [fMLP, N-formyl-methionyl-leucyl-phenylalanine, reference compound] | 50 | about 65 μm | greater directional bias than IL8 | 23.64 | 17.7 | 8.07 |  | 
IL-8: recombinant human interleukin-8, chemoattractant (Catalog #208-IL, R&D Systems) | 70 | 35 μm |  | 33.92 | 27.01 | 14.89 |  | neutrophil migration response to gradient ([2]; IL-8 gradient from 0 to 12 nM over 400 μm, P-selectin coated surface): sustained migration in the direction of the gradient
fibronectin |  |  |  |  |  |  | five times more cells | cells captured ([3]; coated surfaces at 200 μg/mL concentration of priming solution, whole blood): 3-4 cells/mm^2
B1 |  |  | more directionally biased and persistent |  |  |  | not significant | neutrophil activation by binding to capture surface (morphology) ([3]; before chemokine introduced, P-selectin functionalized surface (FIGS. 7A-7C)): did not induce neutrophil activation; maximum capture efficiency ([3]; surface coated with 25 μg/mL solution, whole blood): approximately 35 cells/mm^2; chemokinesis of neutrophils on functionalized substrate ([2]; in the absence of IL-8): No significant chemokinesis
B2 |  |  |  |  |  |  | approximately twice as many cells | maximum capture efficiency ([3]; surface coated with 50 μg/mL solution, whole blood): ~15 cells/mm^2
